Laboratory results as given in patent publication US6043263A, “(2,3-dihydrobenzofuranyl)-thiazoles as phosphodiesterase inhibitors” (Byk Gulden Lomberg Chemische Fabrik GmbH, priority 1996, dated 2000).
Where a name gives a salt, the structure may show the parent alone.

tested on: PDE IV; test: Inhibition of PDE IV activity; assay type: biochemical; settings: method of Bauer and Schwabe adapted to microtiter plates
Experimental: The activity test was carried out according to the method of Bauer and Schwabe, which was adapted to microtiter plates (Naunyn-Schmiedeberg's Arch. Pharmacol. 311, 193-198, 1980). In this test, the PDE reaction takes place in the first step. In a second step, the charged 5'-nucleotide is cleaved to give the uncharge nucleoside by a 5'-nucleotidase of the snake veno of Ophiophagus hannah (king cobra). In the third step, the nucleoside is separated from the remaining charged substrate on ion exchange columns. The columns are eluted directly into minivials using 2 ml of 30 mM ammonium formate (pH 6.0) to which a further 2 ml of scintillator fluid is added for counting.
The inhibitory values determined for the compounds according to the invention result from Table 1 which follows, in which the numbers of the compounds correspond to the numbers of the examples.

First: COc1ccc(-c2csc(-c3ccnc(C(=O)O)c3)n2)c2c1OC1(CCCC1)C2 [Compound 4, 4-[4-(2,3-Dihydro-7-methoxybenzofuran-2-spiro-1'-cyclopentan-4-yl)thiazol-2-yl]pyridine-2-carboxylic acid semihydrochloride]
Second: CCOC(=O)c1cc(-c2nc(-c3ccc(OC)c4c3CC3(CCCC3)O4)cs2)ccn1 [Compound 3, Ethyl 4-[4-(2,3-Dihydro-7-methoxybenzofuran-2-spiro-1'-cyclopentan-4-yl)thiazol-2-yl]pyridine-2-carboxylate]
The “-log IC50” value of the first is lower: 6.85 for the first, 7.22 for the second.

`COc1ccc(-c2csc(-c3cccc(C(=O)O)c3)n2)c2c1OC1(CCCC1)C2` [Compound 5, 3-[4-(2,3-Dihydro-7-methoxybenzofuran-2-spiro-1'-cyclopentan-4-yl)thiazol-2-yl]benzoic acid] and `COc1ccc(-c2csc(-c3cccnc3)n2)c2c1OC1(CCCC1)C2` [Compound 1, 3-[4-(2,3-Dihydro-7-methoxybenzofuran-2-spiro-1'-cyclopentan-4-yl)thiazol-2-yl]pyridine] are within 0.2 log units of each other in “-log IC50” value: 7.79 for the first, 7.74 for the second.

In the case of `COc1ccc(-c2csc(-c3ccncc3)n2)c2c1OC1(CCCC1)C2` [Compound 2, 4-[4-(2,3-Dihydro-7-methoxybenzofuran-2-spiro-1'-cyclopentan-4-yl)thiazol-2-yl]pyridine], the “-log IC50” value is reported as 7.25.
